In patent US20110112299A1, “TETRACYCLIC COMPOUND” (KYOWA HAKKO KIRIN CO., LTD., priority 2008, published 2011):

Target: T1, recombinant human glucocorticoid receptor (Homo sapiens, UniProt P04150)
T1 construct: purchased Panvera/Invitrogen P2812 (kit P2893)
T1 sequence (P04150 1-777): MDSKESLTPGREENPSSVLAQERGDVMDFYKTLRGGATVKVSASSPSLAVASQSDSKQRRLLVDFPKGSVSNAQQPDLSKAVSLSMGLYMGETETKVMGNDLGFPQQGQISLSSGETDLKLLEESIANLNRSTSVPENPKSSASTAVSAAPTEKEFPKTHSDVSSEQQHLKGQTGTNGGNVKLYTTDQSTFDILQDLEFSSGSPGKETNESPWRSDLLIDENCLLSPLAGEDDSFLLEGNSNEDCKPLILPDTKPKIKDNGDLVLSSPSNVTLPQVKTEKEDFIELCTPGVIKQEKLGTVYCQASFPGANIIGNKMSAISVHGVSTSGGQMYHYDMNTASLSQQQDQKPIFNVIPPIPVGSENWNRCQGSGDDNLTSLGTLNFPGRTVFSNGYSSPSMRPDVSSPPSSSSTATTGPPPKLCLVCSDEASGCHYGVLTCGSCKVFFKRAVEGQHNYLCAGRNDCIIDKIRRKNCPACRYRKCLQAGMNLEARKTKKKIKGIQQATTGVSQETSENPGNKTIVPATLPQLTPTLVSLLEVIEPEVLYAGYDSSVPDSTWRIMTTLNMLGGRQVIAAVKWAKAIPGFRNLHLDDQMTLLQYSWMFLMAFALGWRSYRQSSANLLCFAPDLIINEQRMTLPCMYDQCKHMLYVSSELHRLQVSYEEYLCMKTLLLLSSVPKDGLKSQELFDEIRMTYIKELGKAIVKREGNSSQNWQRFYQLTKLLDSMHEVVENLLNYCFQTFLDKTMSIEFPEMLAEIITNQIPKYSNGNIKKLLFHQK
Test: Human glucocorticoid receptor assay (fluorescence polarization, Test Example 1)
Type: binding
Method: In this assay, a fluorescence polarization assay kit (Panvera/Invitrogen, product number: P2893) was used. The recombinant human glucocorticoid receptor (product number: P2812), the Fluoromore (trademark)-labeled dexamethasone (GS Green, product number: P2813), the stabilizing peptide solution (product number: P2815), and the basic buffer solution (product number: P2814) which were used in the assay kit had been stored at −80° C. until used. A buffer solution for the assay was prepared by adding the basic buffer solution (10 fold dilution), the stabilizing peptide solution (10 fold dilution), and 1 mol/L DTT (1000 fold dilution to give a final concentration of 1 mmol/L).
The assay was performed as follows. […] The fluorescence polarization value of each well was measured using a plate reader (PerkinElmer, Fusion or Envision). […] To a positive control group, dexamethasone was added so as to give a final concentration of 1 μmol/L. The glucocorticoid receptor binding rate (%) was calculated by the following formula.
Glucocorticoid receptor binding rate (%)=100×[1-(fluorescence polarization value of test compound solution−fluorescence polarization value of positive control solution)/(fluorescence polarization value of negative control solution−fluorescence polarization value of positive control solution)]

**Q.** `CC/C(=C1\c2cc3cnn(C)c3cc2COc2ccccc21)c1cccc(NS(C)(=O)=O)c1` [Compound 2, (Z)-5-{1-[3-(methanesulfonamide)phenyl]propylidene}-1-methyl-5,11-dihydrobenzo[6,7]oxepino[4,3-f]indazole] was tested. Which “inhibitory activity (glucocorticoid receptor binding rate)” value (at a concentration of 100 nmol/L or higher) did it give?
**A.** Its value is ≥ 80%.

**Q.** What about the “selectivity for human glucocorticoid receptor over progesterone receptor” value (from the results of Test Examples 1 and 2) of the same molecule?
**A.** The value was “selective inhibitory activity to human glucocorticoid receptors”.
